Ends that are not written are not given here.
Experiments:
MRSA strains = conditions: sub-MIC levels, 25 days, daily passage
Protocol: To evaluate if populations of AMP-resistant bacteria could be selected, cultures were continuously exposed to Lynronne-1, Lynronne-2 and Lynronne-3 for a duration of 25 days, as previously described.[40] Briefly, broth microdilution susceptibility testing was performed using a standard doubling-dilution series of Lynronne-1, Lynronne-2 and Lynronne-3 concentrations on day 1.

Sal. typhimurium = test: SPOT peptide library screen (resazurin fluorescence); assay type: cell-based, Salmonella enterica serovar Typhimurium; parameters: unit not given here; conditions: 75% reduction of fluorescence vs untreated controls; active IC75≤0.25, semi-active 0.25<IC75≤0.50, inactive IC75>0.5
Excerpt: (§1) The peptides in the created peptide library were synthesized based on the SPOT technique and pure peptides (≥95% purity) were synthesized on resin using solid phase Fmoc peptide chemistry.[16] The 135 peptides in the peptide library were screened for antimicrobial activity using both luminescent (Pseudomonas aeruginosa strain H1001)[34] and non-luminescent (epidemic methicillin resistant S. aureus EMRSA-15, Sal. typhimurium and E. coli K12) bacterial strains. Activity against non-luminescent bacteria strains was assessed by fluorescence readings (excitation/emission spectra of 560/590 nm) after the addition of resazurin dye (100 µm final concentration). The results from the screen were analysed using the MATLAB extension Gait-CAD as previously described.[35] Concentration values with a 75% reduction of luminescence or fluorescence (IC75) in relation to untreated controls were computed.

S. aureus = test: microbe, parasite or virus in culture; conditions: for MIC: strain RN4220, Sensitive, cation adjusted MHB, 18–24 h
Protocol: (§2) Peptides dissolved in sterile distilled water and comparator antibiotics dissolved in the appropriate solvents[38] were added to sterile U-bottom polypropylene 96-well microplates at desired concentrations.

Sal. typhimurium SL1344 = test: microbe, parasite or virus in culture
Protocol: as §2

[1] = system: List. monocytogenes NCTC 11994; test: microbe, parasite or virus in culture; conditions: NCTC 11994
Protocol: as §2

[2] = system: human and sheep erythrocytes
Protocol: The haemolytic activity of peptides was determined by measuring haemoglobin leakage from human and sheep erythrocytes (Divbioscience, NL) after 1 h incubation at OD450nm. Cetyltrimethylammonium bromide (CTAB), a non-specific detergent was also included as a positive control. Triton-X 100 (0.1% v/v) was also used as an indicator of 100% haemolysis while PBS treatment represented auto-haemolysis.

EMRSA-15 = test: SPOT peptide library screen (resazurin fluorescence); assay type: cell-based, Staphylococcus aureus; parameters: unit not given here; conditions: 75% reduction of fluorescence vs untreated controls; active IC75≤0.25, semi-active 0.25<IC75≤0.50, inactive IC75>0.5
Excerpt: as §1

P. aeruginosa H1001 = test: SPOT peptide library screen (luminescence); assay type: cell-based, Pseudomonas aeruginosa; parameters: unit not given here; conditions: 75% reduction of luminescence vs untreated controls; active IC75≤0.25, semi-active 0.25<IC75≤0.50, inactive IC75>0.5
Excerpt: as §1

[3] = system: S. aureus MRSA ATCC 33591; test: Neutropenic mouse MRSA thigh infection model; assay type: in vivo, Staphylococcus aureus; conditions: neutropenic male ICR mice; 10 mg/kg IV once or twice (2 h or 2 and 8 h post infection)
Protocol: In the thigh infection model, using neutropenic mice,[25] groups of five male ICR mice weighing 22 ± 2 g were inoculated intramuscularly (IM) with S. aureus MRSA, ATCC 33591 (1.57 × 10^5 CFU/mouse (0.1 ml/thigh)) in the right thigh. Lynronne-1, Lynronne-2 and Lynronne-3 at 10 mg/kg were intravenously (IV) administered once 2 h post infection or twice 2 and 8 h post-infection. The reference substance, vancomycin, was also intravenously injected 2 and 8 h post-infection at 10 and 30 mg/kg. Test animals were sacrificed 26 h after inoculation and the infected thighs were excised and the bacterial burden (CFU/gram) was determined.

E. coli K12 = test: MIC, broth microdilution; assay type: cell-based, Escherichia coli; conditions: strain K12; cation adjusted MHB, 18–24 h
Protocol: as §2

USA300 MRSA (BAA-1717) = test: Murine model of MRSA wound infection; assay type: in vivo, Staphylococcus aureus; conditions: ICR mice, topical 2% once daily for 3 days, five mice/group
Protocol: The efficacy of Lynronne-1, Lynronne-2 and Lynronne-3 for treating a wound infection caused by USA300 community-associated methicillin resistant S. aureus (MRSA, strain BAA-1717) was evaluated using a murine wound model with ICR mice.[24] A sharp punch (ID 12 mm) was used to create excisional skin wounds in groups of five female ICR mice (5–6 weeks old). The mice were inoculated topically on the wound area (5 µl per wound) with 1.05 × 10^5 CFU/mouse of strain BAA-1717 suspended in 5 µl PBS. Peptides (2 or 10% w/v) in PBS (pH 7.4), control (PBS), and mupirocin 2% (Dermasafe® ointment) were topically applied (20 µl/mouse) directly to wounds 2 h post infection and once daily thereafter for three consecutive days. Test animals were sacrificed and the wound tissue was excised for enumeration of bacteria cells (CFU/wound). A two-log reduction in the bacterial count (≥99% reduction) relative to the control group indicates significant activity. Statistical significance (P < 0.05) was performed with one-way analysis of variance (ANOVA) followed by use of the Dunnett’s method.

[4] = Peptide-lipid interaction with pure lipids, lipid monolayer; assay type: binding; conditions: peptide 1 µg/ml; for Interaction with pure lipids: POPG, cardiolipin, LTA, POPE above POPC, initial surface pressure 30 ± 0.5 mN/m
Protocol: Membrane permeabilsation was evaluated using propidium iodide assay as previously explained,[43] with CTAB as positive control. Peptide–lipid interaction was measured using reconstituted lipid monolayer.[44] Total lipid extract from overnight liquid cultures of MRSA USA300 was obtained by Folch extraction, resuspended in chloroform and stored at −20 °C under nitrogen conditions. Pure bacterial and eukaryotic lipids, POPG, cardiolipin, LTA, POPE and POPC (Avanti Polar Lipid USA) were reconstituted in chloroform at 1 mg/ml and stored at −20 °C under nitrogen. Using a 50 µl Hamilton’s syringe, total MRSA lipid extract or pure lipids were spread at the surface of PBS creating a lipid monolayer at the air-water interface until an initial surface pressure of 30 ± 0.5 mN/m was reached. This corresponds to a lipid packing density theoretically equivalent to that of the outer leaflet of the cell membrane.[45] After 5–10 min of incubation allowing evaporation of the solvent and stabilization of the initial surface pressure, peptides were injected into the PBS (pH 7.4, volume 800 µl) sub-phase using a 10 µl Hamilton syringe. The variation of the surface pressure caused by peptide injection was then continuously monitored using a fully automated microtensiometer (µTROUGH SX, Kibron Inc., Helsinki, Finland) until reaching equilibrium (maximal surface pressure increase usually obtained after 15–25 min). Critical pressure of insertion of each peptide in the different lipids was also determined by changing the initial pressure of lipid monolayer (from 10 and 30 mN/m) and measuring the variation of pressure caused by the injection of peptide (at 1 µg/ml final concentration). All experiments were carried out in a controlled atmosphere at 20 °C ± 1 °C and data were analyzed using the Filmware 2.5 program (Kibron Inc., Helsinki, Finland). Variation of surface pressure was plotted as a function of initial surface pressure and critical pressure of insertion was calculated as the theoretical value of initial pressure of lipid monolayer not permissive to peptide insertion, i.e., a variation of pressure equal to 0 mN/m. The accuracy of the system under our experimental conditions was determined to be ± […] for surface pressure measurements.

| Substance | Resistance acquisition during serial passage (MRSA strains) | IC75 values indicating activity classes, Sal. typhimurium (Sal. typhimurium) | MIC range for methicillin-resistant S. aureus (MRSA) strains (S. aureus) | MIC (S. aureus) | MIC (Sal. typhimurium SL1344) | MIC [1] | Haemolytic activity against red blood cells [2] | IC75 values indicating activity classes, EMRSA-15 (EMRSA-15) | IC75 values indicating activity classes, P. aeruginosa H1001 (P. aeruginosa H1001) | Antimicrobial effect compared to the vehicle/control group (0.9% NaCl) [3] | MIC (E. coli K12) | Colony count relative to the control group treated with PBS (USA300 MRSA (BAA-1717)) | Interaction with pure lipids [4] | Affinity for lipids by critical pressure of insertion ([4]; initial pressure varied 10 to 30 mN/m) |
| --- | --- | --- | --- | --- | --- | --- | --- | --- | --- | --- | --- | --- | --- | --- |
| LPRRNRWSKIWKKVVTVFS-NH2 [Lynronne-1] | failed to produce mutants that were resistant | 0.24 | 8 to 32 µg/mL | 32 µg/mL | 32 µg/mL | 32 µg/mL | little haemolytic activity | 0.38 | 0.14 | not associated with any significant antimicrobial effects | 32 µg/mL | significant decrease | preferentially interact with lipids specific to bacteria |  |
| HLRRINKLLTRIGLYRHAFG-NH2 [Lynronne-2] | failed to produce mutants that were resistant | 0.09 |  | 32 µg/mL | 32 µg/mL | 32 µg/mL | little haemolytic activity | 0.29 | 0.14 | not associated with any significant antimicrobial effects | 64 µg/mL | No significant decreases | preferentially interact with lipids specific to bacteria | highest affinity for LTA |
| NRFTARFRRTPWRLCLQFRQ-NH2 [Lynronne-3] | failed to produce mutants that were resistant | 0.41 | 32 to 128 µg/mL | 32 µg/mL | 64 µg/mL | 32 µg/mL | little haemolytic activity | 0.65 | 0.54 | not associated with any significant antimicrobial effects | 64 µg/mL | No significant decreases | preferentially interact with lipids specific to bacteria |  |
